This note sets out measurements from patent US7166452B2, “Aminoketone asymmetric reductase and nucleic acid thereof” (priority 2001, dated 2007).

Data set [1] deals with Hypocrea gelatinosa IFO-9165. The data set can be described thus: Influence of inducer addition on d-pseudoephedrine production (Example 6). Format: cell-based. The note with it: cells cultured with inducer 5 g/L, medium 4.
The subject of data set [2] is Absidia lichtheimi IFO-4409. Format: cell-based.
Data set [3] has as its system Klebsiella pneumoniae IFO-3319. The data set is classed as cell-based.
Data set [4] deals with Nocardioides simplex IFO-12069. Format: cell-based.
The test system of data set [5] is Penicillium cyaneum IFO-5337. The data set can be described thus: Influence of inducer addition on d-pseudoephedrine production (Example 6). The data set is classed as cell-based. The note with it: cells cultured with inducer 5 g/L, medium 4.
In data set [6] the test system is Aspergillus awamori IFO-4033. The data set is classed as cell-based.
In data set [7] the test system is aminoketone asymmetric reductase. The data set can be described thus: Substrate specificity and enzyme activity of purified enzyme (NADPH absorbance at 340 nm). Format: biochemical, Rhodococcus erythropolis. The conditions noted are these: for enzyme acts on the compound (substrate specificity): purified enzyme. As to the method: While 10 μl of 1 M Tris-hydrochloric acid buffer solution (pH 8.0), 25 μl of 16 mM NADP^+, and 215 μl of the purified enzyme solution were held at 43° C., 1 μl of 1-amino-2-hydroxypropane was added thereto, whereby aminoacetone was produced. The increase or decrease in NADPH accompanying the reaction was measured by the change in absorbance at 340 nm. In the measurement of enzyme activity, the enzyme activity by which 1 μmol of 1-amino-2-hydroxypropane was oxidized per 1 min under the following condition was defined as 1 unit (U). As a result, the whole activity was 126 mU, the specific activity was 432 mU/mg, and the activity yield was 0.22%.
It was similarly confirmed that the enzyme acted on 1-2-methylaminopropiophenone, 1-2-dimethylaminopropiophenone, and 1-amino-2-butanone.

Data set [8] deals with Tritirachium oryzae IFO-7544. The data set is classed as cell-based.
In data set [9] the test system is Mycobacterium smegmatis IAM-12065. The data set is classed as cell-based.
Data set [10] has as its system Aspergillus candidus IFO-5468. Format: cell-based.
The subject of data set [11] is Mycobacterium chlorophenolicum IFO-15527. The data set is classed as cell-based.
The test system of data set [12] is Rhodococcus erythropolis MAK-34. Format: cell-based.
For data set [13], the system named is Armillariella mellea IFO-31616. The data set can be described thus: Influence of inducer addition on d-pseudoephedrine production (Example 6). Format: cell-based. The conditions noted are these: cells cultured with inducer 5 g/L, medium 4.
Data set [14] concerns Helicostylum nigricans IFO-8091. The data set is classed as cell-based.
The subject of data set [15] is aminoketone asymmetric reductase. Format: biochemical, Rhodococcus erythropolis. The note with it: inhibitor at a concentration of 1 mM; purified enzyme. The procedure:
While 10 μl of 1 M Tris-hydrochloric acid buffer solution (pH 8.0), 25 μl of 16 mM NADP^+, and 215 μl of the purified enzyme solution were held at 43° C., 1 μl of 1-amino-2-hydroxypropane was added thereto, whereby aminoacetone was produced. The increase or decrease in NADPH accompanying the reaction was measured by the change in absorbance at 340 nm. In the measurement of enzyme activity, the enzyme activity by which 1 μmol of 1-amino-2-hydroxypropane was oxidized per 1 min under the following condition was defined as 1 unit (U).

For data set [16], the system named is Rhodococcus erythropolis MAK-34 strain. The data set is classed as cell-based.
The subject of data set [17] is aminoketone asymmetric reductase. Description: Optimum pH and optimum temperature of purified enzyme. The note with it: 1-amino-2-propanol, NADP+. The data set is classed as biochemical, Rhodococcus erythropolis. As to the method: Ten microliters of the purified enzyme solution, 420 μL of water, 20 μL of 1 M Tris-hydrochloric acid buffer solution, and 50 μL of 16 mM aqueous NADP^+ solution was mixed, and incubated at 45° C., and 2 μL of 1-amino-2-propanol were added thereto, so as to react therewith. Using a spectrophotometer, the activity was calculated from the change in absorbance at 340 nm with time (FIG. 2). As a result, the optimum pH was about 8.1.
Ten microliters of the purified enzyme solution, 420 μL of water, 20 μL of 0.1 M PIPES buffer solution (pH 7.5), and 50 μL of 16 mM aqueous NADP^+ solution was mixed, and incubated at various temperatures, and 2 μL of 1-amion-2-propanol were added thereto, so as to react therewith. Using a spectrophotometer, the activity was calculated from the change in absorbance at 340 nm with time (FIG. 3). As a result, the optimum temperature was 55° C.

Regarding `CC(O)CN` (centres unmarked) [1-amino-2-hydroxypropane], the “AMOUNT OF PRODUCTION (ADDED)” value in data set [1] turned out to be 0.640 mg; in data set [2] it was 0.220 mg; in data set [3], 0.066 mg; in data set [4] it was 0.190 mg; in data set [5], 1.260 mg; in data set [6], 1.170 mg. For the same molecule, the “AMOUNT OF PRODUCTION (ADDED)” value was determined as 0.078 mg in data set [8]; 0.210 mg in [9]; 0.018 mg in [10]; 0.770 mg in data set [11]; 1.260 mg in data set [12]; 0.460 mg in data set [13]. Moreover, the “AMOUNT OF PRODUCTION (ADDED)” value in data set [14] was 0.520 mg. Moreover, the “enzyme acts on the compound (substrate specificity)” value (shortened to “enzyme acts on the compound”) in data set [7] is “acts on”.
In the case of `O=C(O)CN(CCN(CC(=O)O)CC(=O)O)CC(=O)O` [EDTA], in [15], the “enzyme activity inhibited by inhibitor” value is on record as “inhibited”.
For `CC(=O)CN` [1-amino-2-oxopropane], the “enzyme acts on the compound” value in data set [7] was “reduction activity”. For the same molecule, in data set [16], the “AMOUNT OF PRODUCTION” value was found to be 1.97 mg.
For `CC(C(=O)c1ccccc1)N(C)C` (centres unmarked) [1-2-dimethylaminopropiophenone], the “enzyme acts on the compound” value in data set [7] is reported as “acted on”.
Take `CCC(O)CN` (centres unmarked) [1-amino-2-hydroxybutane]: the “AMOUNT OF PRODUCTION (ADDED)” value in [9] was found to be 0.17 mg; in data set [12], 0.65 mg.
Turning to `CNC(C)C(=O)c1ccccc1` (centres unmarked) [1-2-methylaminopropiophenone], the “enzyme acts on the compound” value in data set [7] is “acted on”.
Still for that read-out and setting: next, `CCC(=O)CN` [1-amino-2-butanone]: “acted on”.
For the molecule `c1cnc2c(c1)ccc1cccnc12` [o-phenanthroline], the “enzyme activity inhibited by inhibitor” value in [15] is “inhibited”.
On to `c1ccc(-c2ccccn2)nc1` [α,α′-dipyridyl], for which the “enzyme activity inhibited by inhibitor” value in [15] is recorded as “inhibited”.
For `NC1CCCCC1O` (centres unmarked) [1-amino-2-hydroxycyclohexane], the “AMOUNT OF PRODUCTION (ADDED)” value in [9] is on record as 0.13 mg; in data set [12], 0.23 mg.

B1: aminoketone asymmetric reductase: enzyme purified from Rhodococcus erythropolis MAK-34; SEQ ID NO:1; tetramer of about 28,500 subunits; coenzyme NADP (protein, listed as Rhodococcus erythropolis)
chain: MFNSIEGRSVVVTGGSKGIGLGMVRVFARAGANVLMTARDALTLERAAEGLNGLPGAVSTLQVDVTNPDSLAGMAEVAAERHGGIDVLCANAGIFPSKRLGEMTSEDMDSVFGVNVKGTIHAVQACMPWLETSGRGRVVVTSSITGPVTGYPGWSHYGASKAAQMGFIRTAAIELAPKRITINAVLPGNVITEGLDGLGQEYLDQMASSVPAGSLGSVEDIANAALFFALDEAAYITGQSLIVDGGQVLPESAMALGEL
modifications: tetramer
notes: enzyme purified from Rhodococcus erythropolis MAK-34; tetramer of about 28,500 subunits; coenzyme NADP
B1 showed a specific activity in [7] (oxidation of 1-amino-2-hydroxypropane, NADP+, pH 8.0, 43° C., 1 U = 1 μmol per 1 min) of 432 mU/mg. The same molecule came in with an optimum temperature in data set [17] (PIPES buffer pH 7.5) of 55 °C. In addition, the “optimum pH” value in data set [17] (Tris-hydrochloric acid buffer, 45° C.) is “about 8.1”.
